The values below come from the RepoRT retention time repository (doi:10.1016/j.foodchem.2021.129757).

Common to all, as to details: stereoisomer not certain
Data set [1] can be described thus: RP, 150 × 2.1 mm, 2.6 µm, 40 °C, 0.35 mL/min, estimated dead time 0.94 min; A: water + 0.1% formic acid, pH 3; B: acetonitrile + 0.1% formic acid, pH 3; gradient (min/%B) 0/0 1/0 12.5/100 14/100 14.2/0 15/0.
Data set [2] can be described thus: RP, 150 × 2.1 mm, 2.6 µm, 40 °C, 0.35 mL/min, estimated dead time 0.94 min; A: water + 0.1% formic acid, pH 3; B: acetonitrile + 0.1% formic acid, pH 3; gradient (min/%B) 0/0 1/5 7/45 8.5/80 10.5/80 11/5 12/5.
Data set [3] is described as follows: RP, Waters ACQUITY UPLC HSS T3, 100 × 2.1 mm, 1.8 µm, 30 °C, 0.4 mL/min, estimated dead time 0.55 min; A: water + 0.1% formic acid, pH 3; B: acetonitrile + 0.1% formic acid, pH 3; gradient (min/%B) 0/0 2/0 15/100 22/100 22.1/0 26/0.
Data set [4] is described as follows: RP, Agilent InfinityLab Poroshell 120 EC-C18, 100 × 3 mm, 2.7 µm, 25 °C, 0.4 mL/min, estimated dead time 1.1 min; A: water + 0.1% formic acid, pH 3; B: acetonitrile + 0.1% formic acid, pH 3; gradient (min/%B) 0/5 10/25 20/40 24/90 25/90 26/5 30/5.
A short description of data set [5]: RP, Waters Atlantis T3, 100 × 2.1 mm, 3 µm, 40 °C, 0.3 mL/min, estimated dead time 0.73 min; A: water + 0.1% trifluoroacetic acid, pH 2; B: acetonitrile + 0.1% trifluoroacetic acid, pH 2; gradient (min/%B) 0/10 1/10 6/40 7/50 8/50 14/70 16/80 20/10 25/10.
A short description of data set [6]: RP, 50 × 0.5 mm, 2.7 µm, 35 °C, 0.01 mL/min, estimated dead time 0.62 min; A: water + 0.1% formic acid, pH 3; B: acetonitrile + 0.1% formic acid, pH 3; gradient (min/%B) 0/5 12/95 14/95 16/5.
Data set [7] is described as follows: RP, Phenomenex Luna Omega Polar C18, 100 × 2.1 mm, 1.6 µm, 40 °C, 0.5 mL/min, estimated dead time 0.44 min; A: water + 0.5% formic acid; B: acetonitrile + 0.5% formic acid; gradient (min/%B) 0/5 3/50 3.1/100 5/100 5.1/5 7/5.
Data set [8] in a line: RP, Waters ACQUITY UPLC HSS T3, 100 × 2.1 mm, 50 °C; A: water + 0.1% formic acid, pH 3; B: 30% methanol + 70% acetonitrile + 0.1% formic acid, pH 3; gradient (min/%B) 0/5 1/8 2/15 3/40 4/70 4.5/100 5/100 6.4/100 6.6/5 6.8/5 7/5.
Data set [9] is described as follows: RP, Waters ACQUITY UPLC BEH Shield RP18, 100 × 2.1 mm, 1.7 µm, 30 °C, 0.6 mL/min, estimated dead time 0.37 min; A: water + 0.1% formic acid, pH 3; B: acetonitrile + 0.1% formic acid, pH 3; gradient (min/%B) 0/0 2/0 7/10 22/95 22.1/0 26/0.
Data set [10] can be described thus: RP, Waters ACQUITY UPLC BEH Shield RP18, 150 × 2.1 mm, 1.7 µm, 40 °C, 0.4 mL/min, estimated dead time 0.83 min; A: water + 0.1% formic acid, pH 3; B: acetonitrile + 0.1% formic acid, pH 3; gradient (min/%B) 0/0 30/50 31/100 37/100 37.1/0.
Data set [11] can be described thus: RP, Phenomenex Synergi Hydro-RP, 150 × 2 mm, 4 µm, 30 °C, 0.5 mL/min, estimated dead time 0.6 min; A: water + 0.1% formic acid, pH 3; B: acetonitrile + 0.1% formic acid, pH 3; gradient (min/%B) 0/5 1/5 35/45 40/100 45/100.
Data set [12] in a line: RP, Phenomenex Luna C18, 150 × 4.6 mm, 3 µm, 25 °C, 0.5 mL/min, estimated dead time 3.2 min; A: water + 0.1% formic acid, pH 3; B: acetonitrile + 0.1% formic acid, pH 3; gradient (min/%B) 0/0 30/30 35/40 50/80 52/80 60/0 65/0.
Data set [13] is described as follows: RP, Phenomenex Synergi Hydro-RP, 250 × 2 mm, 4 µm, 25 °C, 0.2 mL/min, estimated dead time 2.5 min; A: water + 0.1% formic acid, pH 3; B: acetonitrile + 0.1% formic acid, pH 3; gradient (min/%B) 0/0.5 7/0.5 12/12.5 25/16.3 47/35 48/65 50/65 50.1/0.5.
Data set [14] is described as follows: RP, Agilent ZORBAX Eclipse XDB-C18, 100 × 2.1 mm, 1.8 µm, 50 °C, 0.4 mL/min, estimated dead time 0.55 min; A: water + 0.1% formic acid, pH 3; B: methanol + 0.1% formic acid, pH 3; gradient (min/%B) 0/2 10/100 14.5/100 14.51/2 16.5/2.
The nature of data set [15]: RP, Waters ACQUITY UPLC BEH C18, 100 × 2.1 mm, 1.7 µm, 65 °C, 0.4 mL/min, estimated dead time 0.55 min; A: water + 0.1% formic acid, pH 3; B: 80% acetonitrile + 20% acetone + 0.1% formic acid, pH 3; gradient (min/%B) 0/0 5/100 5.5/0 6/0.

In the case of `Oc1cc(O)c2c(c1)OC(c1cc(O)c(O)c(O)c1)C(O)C2` (single isomer, unassigned; (-)) [(-)-Epigallocatechin], the LC retention time was 4.2 min in data set [1]; 4.07 min in data set [2]; 7.91 min in data set [3]; 4.79 min in data set [4]; 2.05 min in data set [5].
Take `OC1C(O)C(O)C(O)C(O)C1O` (stereo not drawn) [Myo-inositol]: the LC retention time is 2.65 min in data set [6]; 0.54 min in data set [7]; 0.461 min in data set [8]; 0.86 min in [3]; 0.58 min in data set [9]; 1.01 min in data set [10].
As to `O=S(=O)(O)Oc1c(O)cccc1O` [Pyrogallol-2-O-sulfate], the LC retention time in [11] was 3.77 min.
For the compound `Oc1cccc(O)c1O` [Pyrogallol], the values for the LC retention time in [1], in data set [2] and in [5] were 2.06 min, 1.87 min and 1.93 min, respectively.
As for `O=c1c(O)c(-c2ccc(OS(=O)(=O)O)c(O)c2)oc2cc(OS(=O)(=O)O)cc(O)c12` [Quercetin disulfate], the LC retention time was 4.84 min in data set [6] and 31.6 min in data set [12].
With `O=c1c(OC2OC(CO)C(O)C(O)C2O)c(-c2ccc(OC3OC(CO)C(O)C(O)C3O)c(O)c2)oc2cc(O)cc(O)c12` (stereo not drawn) [Quercetin-3,4'-diglucoside], the LC retention time in data set [1] is 5.13 min; in data set [2], 5.11 min; in data set [13], 29.1 min; in data set [5] it was 6.4 min.
With `C[N+]1(C)CCCC1C(=O)[O-]` (stereo not drawn) [Stachydrine], the LC retention time is 0.61 min in data set [7]; 0.545 min in data set [8]; 1.03 min in data set [3]; 0.65 min in [9]; 1.06 min in data set [10].
Take `COc1ccc(-c2cc(=O)c3c(OC)c(OC)c(OC)c(OC)c3o2)cc1` [Tangeretin]: the LC retention time in data set [6] is 7.8 min; in data set [11], 36.5 min; in [7] it was 3.93 min; in data set [12], 49 min; in data set [3] it was 13.7 min; in data set [14], 8.59 min. The LC retention time in data set [9] was 16.9 min; in [10], 26.7 min; in data set [4], 22.8 min.
In the case of `Cc1c(C)c2c(c(C)c1O)CCC(C)(CCCC(C)CCCC(C)CCCC(C)C)O2` (stereo not drawn) [alpha-tocopherol], the LC retention time in data set [6] was 13.2 min; in [7] it was 4.03 min; in data set [3] it was 15.6 min; in data set [14] it was 12.5 min; in data set [15] it was 5.55 min; in data set [9], 18.1 min.
Take `CCC(CCC(C)C1CCC2C3CC=C4CC(O)CCC4(C)C3CCC12C)C(C)C` (stereo not drawn) [beta-sitosterol]: in [7], the LC retention time was 3.92 min.
In the case of `O=C(O)c1cc(O)c(O)c(O)c1` [gallic acid], the LC retention time in [11] is 2.13 min.
On to `OCCc1ccc(O)c(O)c1` [hydroxytyrosol], for which the LC retention time in [11] is 5 min.
Consider `OC1C(O)C(O)C(O)C(O)C1O` (stereo not drawn) [myo-inositol], for which the LC retention time in data set [11] is 8.53 min.
As for `C[N+]1(C)CCCC1C(=O)[O-]` (stereo not drawn) [stachydrine (proline betaine)], the LC retention time in data set [11] was 0.844 min.
Turning to `Cn1cnc2c1c(=O)[nH]c(=O)n2C` [theobromine], in data set [11], the LC retention time is 4.64 min.
The same measure, in the same setting: as for `C[n+]1cccc(C(=O)[O-])c1` [trigonelline], the figure is 0.731 min.
With `O=c1oc2cc(O)ccc2c2ccc(O)cc12` [urolithin A], the LC retention time in data set [11] was 21 min.
Still for that read-out and setting: in the case of `O=c1oc2cc(O)ccc2c2ccccc12` [urolithin B] it was 28.6 min; in that of `CC1CCC2(C(=O)O)CCC3(C)C(=CCC4C5(C)CCC(O)C(C)(C)C5CCC43C)C2C1C` (stereo not drawn) [ursolic acid], 42 min.
The same measure, in the same setting: in the case of `COc1cc(C(=O)O)ccc1O` [vanillic acid] it was 9.27 min.
The same measure, in the same setting: in the case of `COc1cc(C=O)ccc1O` [vanillin] it was 8.67 min.
